Measured values as given in patent US10335608B2, “Photodynamic compounds and methods for activating them using ionizing radiation and/or other electromagnetic radiation for therapy and/or diagnostics” (THERALASE TECHNOLOGIES, INC., priority 2016, dated 2019).

Assays:
U87 cells = assay: Presto Blue cell kill after light and/or X-ray PDT, U87 cells; type: cell-based, human; details: 20 μM
Experimental: The cells were incubated in complete DMEM media containing antibiotics and 10% FBS (resulting in 2.5 μM bovine Tf in the medium) and all the solutions were prepared in this media. The cells were loaded with TLD1433 or TLDOsH2IP (20-80 μM) for 4 hours at 37° C. Subsequently, a wash with complete medium was performed followed by irradiation with red (625 nm, 90 J cm^−2) or near infrared (808 nm, 600 J cm^−2) light, X-ray (5 Gy, 225 keV), X-ray followed by light or light followed by X-ray. Matched dark controls were used in parallel: incubation at ambient conditions (ambient air, room temperature) for a length of time corresponding to the irradiation session. After irradiation, the cells were returned to the incubator. After 21 hours, the viability of cells was determined by Presto Blue assay, and cell kill was calculated as percent of matched control. Pure PDT effect was calculated in the following way: Pure PDT effect (percent cell kill)=Total PDT percent cell kill−Light alone percent cell kill−Dark percent cell kill.

[1] = In vivo CT imaging of the photosensitizer after tail vein injection; details: rat, 1 mg/kg via tail vein, 5 min to 4 hours post administration
Experimental: For in vivo imaging of the photosensitizer, a rat was injected with 1 mg/kg of OsH2dppn via tail vein and imaged with a small animal CT scanner as a function of time post-systemic administration (5, 10, 30 min, 1, 2, 4 hours).

[2] = near infrared light (808 nm, 600 J cm^−2)

With [Os+2].c1ccc2nc(-c3ccc4ccccc4n3)ccc2c1.c1ccc2nc(-c3ccc4ccccc4n3)ccc2c1.c1cnc2c(c1)c1nc[nH]c1c1cccnc12 [OsH2IP, [Os(biq)2(LL)] imidazo[4,5-f][1,10]phenanthroline] the “Dark cell kill (%)” value (U87 cells; no irradiation) was 5.1%, the “PDT cell kill (%)” value (U87 cells; Near Infrared & X-ray) was 31.5% and the “Pure PDT effect (% cell kill, in brackets)” value (U87 cells; Near Infrared & X-ray) was 17.0 % cell kill. For the same compound, the “Synergy in the pure PDT effect (% cell kill)” value (U87 cells; Near Infrared & X-ray) was −9.3 % cell kill, the “PDT cell kill (%)” value (U87 cells; X-ray & Near Infrared) was 50.0% and the “Pure PDT effect (% cell kill, in brackets)” value (U87 cells; X-ray & Near Infrared) was 39.6 % cell kill. For the same compound, the “Synergy in the pure PDT effect (% cell kill)” value (U87 cells; X-ray & Near Infrared) was 13.4 % cell kill, the “PDT cell kill (%)” value (U87 cells; X-ray (5 Gy, 225 KeV)) was 13.8% and the “Pure PDT effect (% cell kill, in brackets)” value (U87 cells; X-ray (5 Gy, 225 KeV)) was 6.8 % cell kill. The “PDT cell kill (%)” value (U87 cells; [2]) was 24.6% and the “Pure PDT effect (% cell kill, in brackets)” value (U87 cells; [2]) was 19.5 % cell kill.

In the case of [Os+2].c1ccc2cc3nc4c5cccnc5c5ncccc5c4nc3cc2c1.c1ccc2nc(-c3ccc4ccccc4n3)ccc2c1.c1ccc2nc(-c3ccc4ccccc4n3)ccc2c1 [OsH2dppn, [Os(biq)2(LL)] benzo[i]dipyrido-[3,2-a:2′,3′-c]phenazine], the “Distribution on CT images over time” value [1] is reported as “presumably accumulating in the bladder over time”.
